According to patent publication US11365187B2, “Pesticidally active pyrazole derivatives” (SYNGENTA PARTICIPATIONS AG, priority 2017, dated 2022):
Read-outs that look alike come from different tables or passages of the source.

Experiments:
Format in all cases: in vivo
[1] = test system: Plutella xylostella (Diamond back moth); assay: Plutella xylostella feeding/contact activity on artificial diet; settings: 120 h
Protocol: Plutella xylostella (Diamond back moth): Feeding/contact activity
24-well microtiter plates with artificial diet were treated with aqueous test solutions prepared from 10′000 ppm DMSO stock solutions by pipetting. After drying, the plates were infested with L2 larvae (10 to 15 per well). The samples were assessed for mortality 5 days after infestation.

[2] = test system: Tetranychus urticae (Two-spotted spider mite); assay: Tetranychus urticae feeding/contact activity on bean leaf discs; settings: foliar, 192 h, read-out: mortality on mixed population (mobile stages)
Protocol: Tetranychus urticae (Two-spotted spider mite): Feeding/contact activity
Bean leaf discs on agar in 24-well microtiter plates were sprayed with aqueous test solutions prepared from 10′000 ppm DMSO stock solutions. After drying the leaf discs were infested with a mite population of mixed ages. The samples were assessed for mortality on mixed population (mobile stages) 8 days after infestation.

[3] = test system: Spodoptera littoralis (Egyptian cotton leaf worm); assay: Spodoptera littoralis feeding/contact activity on cotton leaf discs; settings: foliar, 72 h
Protocol: Spodoptera littoralis (Egyptian cotton leaf worm): Feeding/contact activity
Cotton leaf discs were placed onto agar in 24-well microtiter plates and sprayed with aqueous test solutions prepared from 10′000 ppm DMSO stock solutions. After drying the leaf discs were infested with five L1 larvae. The samples were assessed for mortality 3 days after infestation. […] 2, 3, 4, 5, 6, 7, 8, 9, 10, 11, 12, 13, 14, 15, 16, 17, 18, 19, 20, 21, 22, 23, 24, 25, 26, 27, 28 and 29.

[4] = test system: Thrips tabaci (Onion thrips); assay: Thrips tabaci feeding/contact activity on sunflower leaf discs; settings: foliar, 144 h
Protocol: Thrips tabaci (Onion thrips): Feeding/Contact activity
Sunflower leaf discs were placed on agar in 24-well microtiter plates and sprayed with aqueous test solutions prepared from 10′000 ppm DMSO stock solutions. After drying the leaf discs were infested with a thrips population of mixed ages. The samples were assessed for mortality 6 days after infestation.

[5] = test system: Diabrotica balteata (Corn root worm); assay: Diabrotica balteata (Corn root worm) mortality on sprayed maize sprouts; settings: 96 h
Protocol: Diabrotica balteata (Corn root worm):
Maize sprouts placed onto an agar layer in 24-well microtiter plates were treated with aqueous test solutions prepared from 10′000 ppm DMSO stock solutions by spraying. After drying, the plates were infested with L2 larvae (6 to 10 per well). The samples were assessed for mortality 4 days after infestation.

[6] = test system: Myzus persicae (Green peach aphid); assay: Myzus persicae feeding/contact activity on sunflower leaf discs; settings: foliar, 144 h
Protocol: Myzus persicae (Green peach aphid): Feeding/Contact activity
Sunflower leaf discs were placed onto agar in a 24-well microtiter plate and sprayed with aqueous test solutions prepared from 10′000 ppm DMSO stock solutions. After drying, the leaf discs were infested with an aphid population of mixed ages. The samples were assessed for mortality 6 days after infestation.

[7] = test system: Euschistus heros (Neotropical Brown Stink Bug); assay: Euschistus heros feeding/contact activity on soybean leaves; settings: 120 h
Protocol: Euschistus heros (Neotropical Brown Stink Bug): Feeding/contact activity
Soybean leaves on agar in 24-well microtiter plates were sprayed with aqueous test solutions prepared from 10′000 ppm DMSO stock solutions. After drying the leaves were infested with N2 nymphs. The samples were assessed for mortality 5 days after infestation.

[8] = application rate 200 ppm, L2 larvae, assessed 5 days after infestation, read-out: mortality
[9] = application rate 200 ppm, mite population of mixed ages, assessed 8 days after infestation
[10] = application rate 200 ppm, L1 larvae, assessed 3 days after infestation, read-out: mortality
[11] = application rate 200 ppm, thrips population of mixed ages, assessed 6 days after infestation, read-out: mortality
[12] = application rate 200 ppm, L2 larvae, assessed 4 days after infestation, read-out: mortality
[13] = application rate 200 ppm, aphid population of mixed ages, assessed 6 days after infestation, read-out: mortality
[14] = application rate 200 ppm, N2 nymphs, assessed 5 days after infestation, read-out: mortality

Measured: mortality at 200 ppm

CC(=O)N(C(=O)c1cc(-c2cnn(-c3c(OC(F)F)c(C(F)(C(F)(F)F)C(F)(F)F)nn3C)c2)ccc1Cl)C1(C#N)CC1 [Example 12, N-acetyl-2-chloro-N-(1-cyanocyclopropyl)-5-[1-[4-(difluoromethoxy)-2-methyl-5-[1,2,2,2-tetrafluoro-1-(trifluoromethyl)ethyl]pyrazol-3-yl]pyrazol-4-yl]benzamide]
≥ 80%: [1]; [8] | [2]; [9] | [3]; [10] | [4]; [11] | [5]; [12] | [6]; [13] | [7]; [14]

CCN(C(=O)c1cc(-c2cnn(-c3c(OC(F)F)c(C(F)(C(F)(F)F)C(F)(F)F)nn3C)c2)ccc1Cl)C1(C#N)CC1 [Example 3, 2-chloro-N-(1-cyanocyclopropyl)-5-[1-[4-(difluoromethoxy)-2-methyl-5-[1,2,2,2-tetrafluoro-1-(trifluoromethyl)ethyl]pyrazol-3-yl]pyrazol-4-yl]-N-ethyl-benzamide]
≥ 80%: [1]; [8] | [2]; [9] | [3]; [10] | [4]; [11] | [5]; [12] | [6]; [13] | [7]; [14]

Cn1nc(C(F)(C(F)(F)F)C(F)(F)F)c(OC(F)F)c1-n1cc(-c2cnc(Cl)c(C(=O)NC3(C#N)CC3)c2)cn1 [Example 19, 2-chloro-N-(1-cyanocyclopropyl)-5-[1-[4-(difluoromethoxy)-2-methyl-5-[1,2,2,2-tetrafluoro-1-(trifluoromethyl)ethyl]pyrazol-3-yl]pyrazol-4-yl]pyridine-3-carboxamide]
≥ 80%: [1]; [8] | [2]; [9] | [3]; [10] | [4]; [11] | [5]; [12] | [6]; [13] | [7]; [14]

CN(C(=O)c1cc(-c2cnn(-c3c(OC(F)F)c(C(F)(C(F)(F)F)C(F)(F)F)nn3C)c2)ccc1Cl)C1(C#N)CC1 [Example 4, 2-chloro-N-(1-cyanocyclopropyl)-5-[1-[4-(difluoromethoxy)-2-methyl-5-[1,2,2,2-tetrafluoro-1-(trifluoromethyl)ethyl]pyrazol-3-yl]pyrazol-4-yl]-N-methyl-benzamide]
≥ 80%: [1]; [8] | [2]; [9] | [3]; [10] | [4]; [11] | [5]; [12] | [6]; [13] | [7]; [14]

Cn1nc(C(F)(C(F)(F)F)C(F)(F)F)c(OC(F)F)c1-n1cc(-c2ccc(Cl)c(C(=O)NC3(C#N)CC3)c2)cn1 [Example 1, 2-Chloro-N-(1-cyanocyclopropyl)-5-[1-[4-(difluoromethoxy)-2-methyl-5-[1,2,2,2-tetrafluoro-1-(trifluoromethyl)ethyl]pyrazol-3-yl]pyrazol-4-yl]benzamide]
≥ 80%: [1]; [8] | [2]; [9] | [3]; [10] | [4]; [11] | [5]; [12] | [6]; [13] | [7]; [14]

COC(=O)N(C(=O)c1cc(-c2cnn(-c3c(OC(F)F)c(C(F)(C(F)(F)F)C(F)(F)F)nn3C)c2)ccc1Cl)C1(C#N)CC1 [Example 18, methyl N-[2-chloro-5-[1-[4-(difluoromethoxy)-2-methyl-5-[1,2,2,2-tetrafluoro-1-(trifluoromethyl)ethyl]pyrazol-3-yl]pyrazol-4-yl]benzoyl]-N-(1-cyanocyclopropyl)carbamate]
≥ 80%: [1] | [2] | [3] | [4] | [5] | [6] | [7]

CC(C)OC(=O)N(C(=O)c1cc(-c2cnn(-c3c(OC(F)F)c(C(F)(C(F)(F)F)C(F)(F)F)nn3C)c2)ccc1Cl)C1CC1 [Example 24, isopropyl N-[2-chloro-5-[1-[4-(difluoromethoxy)-2-methyl-5-[1,2,2,2-tetrafluoro-1-(trifluoromethyl)ethyl]pyrazol-3-yl]pyrazol-4-yl]benzoyl]-N-cyclopropyl-carbamate]
≥ 80%: [1] | [2] | [3] | [6] | [7]

COCCCN(C(=O)c1cc(-c2cnn(-c3c(OC(F)F)c(C(F)(C(F)(F)F)C(F)(F)F)nn3C)c2)ccc1Cl)C1(C#N)CC1 [Example 6, 2-chloro-N-(1-cyanocyclopropyl)-5-[1-[4-(difluoromethoxy)-2-methyl-5-[1,2,2,2-tetrafluoro-1-(trifluoromethyl)ethyl]pyrazol-3-yl]pyrazol-4-yl]-N-(3-methoxypropyl)benzamide]
≥ 80%: [1]; [8] | [2]; [9] | [3]; [10] | [6]; [13] | [7]; [14]

Cn1nc(C(F)(C(F)(F)F)C(F)(F)F)c(OC(F)F)c1-n1cc(-c2ccc(Cl)c(C(=O)N(CC#N)C3(C#N)CC3)c2)cn1 [Example 11, 2-chloro-N-(1-cyanocyclopropyl)-N-(cyanomethyl)-5-[1-[4-(difluoromethoxy)-2-methyl-5-[1,2,2,2-tetrafluoro-1-(trifluoromethyl)ethyl]pyrazol-3-yl]pyrazol-4-yl]benzamide]
≥ 80%: [1]; [8] | [2]; [9] | [3]; [10] | [6]; [13] | [7]; [14]

COCC(=O)N(C(=O)c1cc(-c2cnn(-c3c(OC(F)F)c(C(F)(C(F)(F)F)C(F)(F)F)nn3C)c2)ccc1Cl)C1CC1 [Example 22, 2-chloro-N-cyclopropyl-5-[1-[-4-(difluoromethoxy)-2-methyl-5-[1,2,2,2-tetrafluoro-1-(trifluoromethyl)ethyl]pyrazol-3-yl]pyrazol-4-yl]-N-(2-methoxyacetyl)benzamide]
≥ 80%: [1]; [8] | [2]; [9] | [3]; [10] | [6]; [13] | [7]; [14]

CN(C(=O)c1cc(-c2cnn(-c3c(OC(F)F)c(C(F)(C(F)(F)F)C(F)(F)F)nn3C)c2)ccc1Cl)C1CC1 [Example 25, 2-chloro-N-cyclopropyl-5-[1-[4-(difluoromethoxy)-2-methyl-5-[1,2,2,2-tetrafluoro-1-(trifluoromethyl)ethyl]pyrazol-3-yl]pyrazol-4-yl]-N-methyl-benzamide]
≥ 80%: [1]; [8] | [2]; [9] | [3]; [10] | [6]; [13] | [7]; [14]

COCN(C(=O)c1cc(-c2cnn(-c3c(OC(F)F)c(C(F)(C(F)(F)F)C(F)(F)F)nn3C)c2)ccc1Cl)C1(C#N)CC1 [Example 9, 2-chloro-N-(1-cyanocyclopropyl)-5-[1-[4-(difluoromethoxy)-2-methyl-5-[1,2,2,2-tetrafluoro-1-(trifluoromethyl)ethyl]pyrazol-3-yl]pyrazol-4-yl]-N-(methoxymethyl)benzamide]
≥ 80%: [1]; [8] | [2]; [9] | [3]; [10] | [6]; [13] | [7]; [14]

COCN(C(=O)c1cc(-c2cnn(-c3c(OC(F)F)c(C(F)(C(F)(F)F)C(F)(F)F)nn3C)c2)ccc1Cl)C1CC1 [Example 28, 2-chloro-N-cyclopropyl-5-[1-[4-(difluoromethoxy)-2-methyl-5-[1,2,2,2-tetrafluoro-1-(trifluoromethyl)ethyl]pyrazol-3-yl]pyrazol-4-yl]-N-(methoxymethyl)benzamide]
≥ 80%: [1]; [8] | [2]; [9] | [3]; [10] | [6]; [13] | [7]; [14]
